For series [1], the system named is MRSA-2 (methicillin-resistant Staphylococcus aureus clinical isolate). Kind of series: MIC assay (broth microdilution, CLSI). In kind it is cell-based. Conditions: for MIC: read-out: MIC, MRSA-2. On the technique in general: In broth dilution the organism is exposed to a series of concentrations in liquid medium.
The subject of series [2] is MRSA-1 (methicillin-resistant Staphylococcus aureus clinical isolate). The experiment in a line: MIC assay (broth microdilution, CLSI). Conditions: read-out: MIC, MRSA-1. Type of series: cell-based.
Series [3] relates to Staphylococcus epidermidis (ATCC 12228). Kind of series: MIC assay (broth microdilution, CLSI). Type of series: cell-based. The settings on record: Staphylococcus epidermidis.
The test system of series [4] is human red blood cells. The experiment in a line: Hemolysis assay with red blood cells. Conditions: 200 μM. The method in brief:
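Hemolysis expressed as percent of the Triton X signal with DMSO as zero, using OD405 of supernatant. Compounds from DMSO stocks were incubated with triple-washed human erythrocytes for 1 hour at 37° C. before centrifugation; three independent experiments.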

The test system of series [5] is MRSA-2 planktonic cells and biofilms. Kind of series: Calgary Biofilm Device (CBD) assay, MBC/MBEC. In kind it is cell-based, Staphylococcus aureus. The settings on record: for MBC: Staphylococcus aureus, MRSA.
The test system of series [6] is A. baumannii 19606. Kind of series: MIC assay (broth microdilution, CLSI). Type of series: cell-based, Acinetobacter baumannii.
The test system of series [7] is P. aeruginosa (PAO1). Kind of series: MIC assay (broth microdilution, CLSI). In kind it is cell-based.
Series [8] has as its system K. pneumoniae 13883. The experiment in a line: MIC assay (broth microdilution, CLSI). Type of series: cell-based, Klebsiella pneumoniae.
The subject of series [9] is E. coli UAEC-1. The experiment in a line: MIC assay (broth microdilution, CLSI). Type of series: cell-based.
The test system of series [10] is MRSA BAA-1707. Kind of series: MIC assay (broth microdilution, CLSI). Conditions: Staphylococcus aureus, read-out: MIC, MRSA BAA-1707.
In series [11] the test system is MRSA BAA-44. The experiment in a line: MIC assay (broth microdilution, CLSI). The settings on record: Staphylococcus aureus, read-out: MIC, MRSA BAA-44.
Series [12] has as its system Enterococcus faecium (ATCC 700221), VRE. The experiment in a line: MIC assay (broth microdilution, CLSI). Type of series: cell-based.
The test system of series [13] is M. tuberculosis H37Ra (ATCC 25177). Kind of series: Mycobacterium tuberculosis MIC assay. The settings on record: Table 7, read-out: MIC, M. tuberculosis H37Ra. Type of series: cell-based. The protocol:
The culture was then diluted with fresh medium until an OD600 of 0.01 was reached. […] The final DMSO concentration was maintained at 0.5%. […] Three rows were reserved for each compound. […] OD600 absorbance was recorded using SPECTRAMAX M5 (Molecular Devices). Data obtained from three independent experiments were analyzed using Excel.
The culture was then diluted with fresh medium until an OD600 of 0.01 was reached. […] The final DMSO concentration was maintained at 0.5%. […] Three rows were reserved for each compound. […] OD600 absorbance was recorded using SPECTRAMAX M5 (Molecular Devices). Data obtained from three independent experiments were analyzed using EXCEL.

Series [14] can be described thus: in vitro. Type of series: cell-based. Conditions: human. The protocol: The cytotoxicities of select compounds of the invention against HeLa cells were determined. HeLa cytotoxicity was assessed using the LDH release assay described by CYTOTOX96 (Promega G1780). HeLa cells were grown in Dulbecco's Modified Eagle Medium (DMEM; Gibco) supplemented with 10% Fetal Bovine Serum (FBS) at 37° C. with 5% CO2. […] Triton X-100 (at 2% v/v) was used as the positive control for maximum lactate dehydrogenate (LDH) activity in this assay (e.g., complete cell death), while “medium only” lanes served as negative control lanes (e.g., no cell death). DMSO was used as the vehicle control. […] Finally, Stop Solution (50 μL) was added to the incubating plates, and the absorbance was measured at 490 nm.
HeLa cytotoxicity was assessed using the LDH release assay described by CYTOTOX96 (Promega G1780). HeLa cells were grown in Dulbecco's Modified Eagle Medium (DMEM; Gibco) supplemented with 10% Fetal Bovine Serum (FBS) at 37° C. with 5% CO2. […] Triton X-100 (at 2% v/v) was used as the positive control for maximum lactate dehydrogenate (LDH) activity in this assay (e.g., complete cell death), while “medium only” lanes served as negative control lanes (e.g., no cell death). DMSO was used as our vehicle control. […] Finally, Stop Solution (50 μL) was added to the incubating plates and the absorbance was measured at 490 nm. Results are from three independent experiments (FIG. 19)

Series [15] has as its system MRSE (S. epidermidis ATCC 35984) planktonic cells and biofilms. Kind of series: Calgary Biofilm Device (CBD) assay, MBC/MBEC. The settings on record: Staphylococcus epidermidis; Table 8; read-out: MRSE 35984 MBC. In kind it is cell-based, Staphylococcus epidermidis.

Converted amounts (≈) assume the structure as drawn. Read-outs that look alike come from different tables or passages of the source.

For orientation: MIC means the smallest concentration in the dilution series that meets the test's criterion for growth inhibition. Consider `Oc1c(Br)cc(Br)c2nc3cc4ccccc4cc3nc12` [Compound 19], for which the minimal inhibitory concentration (MIC) in series [1] (Staphylococcus aureus, MRSA) is > 100 µM; in series [1] (Table 7, a midpoint of 2-fold range, b lowest concentration tested), >100 µM; in series [2] (Staphylococcus aureus, MRSA) it was 12.5 µM (≈ 5.05 µg/mL); in series [2] (Table 2B, b lowest concentration tested), 12.5 µM (≈ 5.05 µg/mL); in series [3] (ATCC12228, read-out: MIC, S. epidermidis 12228), 12.5 µM (≈ 5.05 µg/mL); in [3] (ATCC12228, read-out: MIC, Staphylococcus epidermidis (ATCC 12228)) it was 12.5 µM (≈ 5.05 µg/mL). Further, the minimal inhibitory concentration (MIC) in series [6] (Acinetobacter baumannii, 19606, read-out: A. baumannii 19606 MIC) is > 100 µM; in series [7] (Pseudomonas aeruginosa, PAO1, read-out: PAO1 MIC), > 100 µM; in [8] (Klebsiella pneumoniae, 13883, read-out: K. pneumoniae 13883 MIC), > 100 µM; in [9] (Escherichia coli, UAEC1, read-out: E. coli UAEC-1 MIC), > 100 µM; in series [10], 50 µM (≈ 20.2 µg/mL); in series [11], 75 µM (≈ 30.3 µg/mL). Further, in series [1] (Table 2B, a midpoint of 2-fold range, * partial growth inhibition at highest concentration), the “MIC, MRSA-2” value is on record as >100* μM. Moreover, the “% Hemolysis (200 μM)” value in series [4] (1 h, 37 °C) was ≤1%. Also, the “% Hemolysis at 200 μM” value in series [4] (red blood cells) is reported as <1%; in series [4] (Table 8, human red blood cells), ≤1%. Moreover, the MBC in [5] (read-out: MBC, MRSA-2) is 200 µM (≈ 80.8 µg/mL); in [5] (read-out: MRSA-2 MBC) it was 200 µM (≈ 80.8 µg/mL). The “MRSA-2 MBC” value in [5] (Table 8, a/b 2-/4-fold range in independent experiments) is on record as 200/>200 μM.

One may read the IC50 as the point on the concentration scale where inhibition reaches its midpoint. The low end stands for greater potency, the high end for weaker potency. As for `Cc1nc2c(I)cc(I)c(O)c2nc1C` [Compound 28], the MIC in series [3] (ATCC12228, Table 2A, read-out: MIC, Staphylococcus epidermidis (ATCC 12228)) was 1.56 to 3.13 µM (≈ 0.665 to 1.33 µg/mL); in series [3] (ATCC12228, Table 7, b lowest concentration tested, read-out: MIC, S. epidermidis 12228), 2.35 µM (≈ 1 µg/mL); in [12] (Enterococcus faecium, Table 2A, read-out: MIC, Enterococcus faecium (ATCC 700221)), 6.25 µM (≈ 2.66 µg/mL); in [12] (Table 7, b lowest concentration tested, read-out: MIC, VRE 700221), 6.25 µM (≈ 2.66 µg/mL); in [13] (Mycobacterium tuberculosis) it was > 50 µM; in series [13], >50 µM. For the same compound, the MIC in series [6] (Acinetobacter baumannii, 19606; read-out: A. baumannii 19606 MIC) is > 100 µM; in series [7] (Pseudomonas aeruginosa, PAO1; read-out: PAO1 MIC) it was > 100 µM; in series [8] (Klebsiella pneumoniae, 13883; read-out: K. pneumoniae 13883 MIC), > 100 µM; in series [9] (Escherichia coli, UAEC1; read-out: E. coli UAEC-1 MIC), > 100 µM. Moreover, the IC50 at 24 h in series [14] was > 100 µM. In addition, the “% Hemolysis (200 μM)” value in [4] (human, 1 h, pH 7.2) worked out at 1.2%. Also, the “% Hemolysis at 200 μM” value in [4] (human, 1 h, pH 7.2) is listed as 1.2%. The MBC turned out to be 93.8 µM (≈ 40 µg/mL) in series [5] (Table 4, read-out: MBC, MRSA-2); 93.8 µM (≈ 40 µg/mL) in series [5] (Table 8, a/b 2-/4-fold range in independent experiments, read-out: MRSA-2 MBC); 23.5 µM (≈ 10 µg/mL) in [15].
